Assay results published in ChEMBL document CHEMBL5365543, “Benzamidine Conjugation Converts Expelled Potential Active Agents into Antifungals against Drug-Resistant Fungi” (J Med Chem, 2023).
Converted amounts (≈) assume the structure as drawn. The source made the active and inactive calls. No cut-off for these calls is given here.

How the values were obtained:
[1] = Drug accumulation in Candida albicans SC5314 by confocal laser scanning microscopic analysis; type: ADME
Candida albicans [2] = test: Antifungal activity against clinical isolate fluconazole-resistant Candida albicans DSY296 harbouring TAC1 mutation overexpressing efflux pump CdrL and Cdr2 assessed as inhibition of fungal growth measured after 24 hrs by CLSI based microtiter plate analysis; type: functional
Candida albicans [3] = test: Antifungal activity against clinical isolate Candida albicans SCUPC2R14MPG2A harbouring UPC2 mutation overexpressing […] Erg11 assessed as inhibition of fungal growth measured after 24 hrs by CLSI based microtiter plate analysis; type: functional
Candida albicans [4] = test: Antifungal activity against wild-type Candida albicans SC5314 assessed as inhibition of fungal growth measured after 24 hrs by CLSI based microtiter plate analysis; type: functional
Candida albicans [5] = test: microbe, parasite or virus in culture; type: functional; conditions: DSY654, time 24 hrs
Description: Antifungal activity against efflux pump-deficient Candida albicans DSY654 assessed as inhibition of fungal growth measured after 24 hrs by CLSI based microtiter plate analysis

Candida albicans [6] = test: Antifungal activity against clinical isolate fluconazole-resistant Candida albicans CA632 assessed as inhibition of fungal growth measured after 24 hrs by CLSI based microtiter plate analysis; type: functional
Candida albicans [7] = test: Antifungal activity against clinical isolate fluconazole-resistant Candida albicans G5 harbouring MRR1 mutation overexpressing MdrL assessed as inhibition of fungal growth measured after 24 hrs by CLSI based microtiter plate analysis; type: functional
Candida albicans [8] = test: Antifungal activity against clinical isolate Candida albicans YEM15 overexpressing efflux pump CdrL and Cdr2 assessed as inhibition of fungal growth measured after 24 hrs by CLSI based microtiter plate analysis; type: functional
Cryptococcus neoformans = test: Antifungal activity against clinical isolate fluconazole-resistant Cryptococcus neoformans H99 assessed as inhibition of fungal growth measured after 24 hrs by CLSI based microtiter plate analysis; type: functional
Candida albicans [9] = test: Antifungal activity against clinical isolate Candida albicans YEM13 overexpressing efflux pump MdrL assessed as inhibition of fungal growth measured after 24 hrs by CLSI based microtiter plate analysis; type: functional
[Candida] auris [10] = Antifungal activity against clinical isolate fluconazole-resistant Candida auris CBS12776 assessed as inhibition of fungal growth measured after 24 hrs by CLSI based microtiter plate analysis; type: functional; conditions: Candidozyma auris
Candida tropicalis = test: Antifungal activity against clinical isolate fluconazole-resistant Candida tropicalis CT10 assessed as inhibition of fungal growth measured after 24 hrs by CLSI based microtiter plate analysis; type: functional
[Candida] auris [11] = Antifungal activity against clinical isolate fluconazole-resistant Candida auris CBS12774 assessed as inhibition of fungal growth measured after 24 hrs by CLSI based microtiter plate analysis; type: functional; conditions: Candidozyma auris
[12] = Drug accumulation in wild-type Candida albicans SC5314 at 50 microg/ml incubated for 3 hrs by HPLC analysis; type: ADME; conditions: dose 50 µg/ml
[13] = Cytotoxicity against mouse L929 cells assessed as inhibition of cell growth measured after 4 hrs by MTT assay; type: toxicity, cell-based
[14] = Induction of hemolysis in mouse RBC cells at 2 to 32 microg/ml incubated for 60 mins by absorbance based analysis; type: toxicity, cell-based, Erythrocyte; conditions: red blood cells (erythrocytes), at 2 to 32 µg/mL, dose 2-32 µg/ml, read-out: Activity
Candida albicans [15] = test: Antifungal activity against clinical isolate Candida albicans SCMRRIR34MPG2A harbouring MRR1 mutation overexpressing efflux pump MdrL assessed as inhibition of fungal growth measured after 24 hrs by CLSI based microtiter plate analysis; type: functional
Candida albicans [16] = test: Antifungal activity against clinical isolate fluconazole-resistant Candida albicans Gu5 harbouring TAC1 mutation overexpressing efflux pump CdrL and Cdr2 assessed as inhibition of fungal growth measured after 24 hrs by CLSI based microtiter plate analysis; type: functional
[17] = Cytotoxicity against human HBE cells assessed as inhibition of cell growth measured after 4 hrs by MTT assay; type: toxicity, cell-based
Nakaseomyces glabratus = test: Antifungal activity against clinical isolate fluconazole-resistant Candida glabrata CG2 assessed as inhibition of fungal growth measured after 24 hrs by CLSI based microtiter plate analysis; type: functional
[18] = Drug localization in mitochondria of Candida albicans SC5314 incubated for 30 mins by MitoTracker dye based confocal laser scanning microscopic analysis; type: ADME; conditions: 0.5 h
Candida albicans [19] = test: Drug accumulation in Candida albicans SC5314 measured per 10^8 cells incubated for 3 hrs by HPLC analysis; type: functional, organism-based
Candida albicans [20] = test: Induction of drug resistance in wild-type Candida albicans SC5314 assessed as change in MIC at 0.5 times of MIC measured after 30 passages by broth microdilution method; type: functional
[21] = Candida albicans, SC5314, 24 h, read-out: MIC80
[22] = Candida albicans, SC5314, read-out: MIC80

In the case of `CCN(CC)c1ccc2c(-c3ccccc3C(=O)O)c3ccc(=[N+](CC)CC)cc-3oc2c1.[Cl-]` [RHODAMINE], the Drug uptake [1] is reported as “Not Active”.
Compound `C=C1C[C@@]23CC[C@H]4[C@@](C)(CCC[C@@]4(C)C(=O)OCCCOc4ccc(C(=N)N)cc4)[C@@H]2CC[C@]1(O)C3` has an MIC80 (Candida albicans [2]) of 8 µg/mL (≈ 16.2 µM), an MIC80 (Candida albicans [3]) of 8 µg/mL (≈ 16.2 µM) and an MIC80 (Candida albicans [4]; 24 h) of 8 µg/mL (≈ 16.2 µM). The MIC80 (Candida albicans [4]; [21]) was 4 µg/mL (≈ 8.09 µM), the MIC80 (Candida albicans [5]) was 2 µg/mL (≈ 4.04 µM) and the MIC80 (Candida albicans [6]) was 8 µg/mL (≈ 16.2 µM). The MIC80 (Candida albicans [7]) was 8 µg/mL (≈ 16.2 µM), the MIC80 (Candida albicans [8]) was 8 µg/mL (≈ 16.2 µM) and the MIC80 (Cryptococcus neoformans) was 16 µg/mL (≈ 32.3 µM). For the same compound, the MIC80 (Candida albicans [9]) was 8 µg/mL (≈ 16.2 µM), the MIC80 ([Candida] auris [10]) was 16 µg/mL (≈ 32.3 µM) and the MIC80 (Candida tropicalis) was 8 µg/mL (≈ 16.2 µM). The MIC80 ([Candida] auris [11]) was 16 µg/mL (≈ 32.3 µM), the Drug uptake [12] was “Active” and the IC50 at 4 h [13] was 23.6 µg/mL (≈ 47.7 µM). The hemolysis at 1 h [14] was < 2%, the MIC80 (Candida albicans [15]) was 8 µg/mL (≈ 16.2 µM) and the MIC80 (Candida albicans [16]) was 8 µg/mL (≈ 16.2 µM). For the same compound, the IC50 at 4 h [17] was > 32 µg/mL and the MIC80 (Nakaseomyces glabratus) was 8 µg/mL (≈ 16.2 µM).
In the case of `CCN(CC)c1ccc2cc(C(=O)OCCCCCCCCOc3ccc(C(=N)N)cc3)c(=O)oc2c1`, the Drug uptake [18] is reported as “Active”.
In the case of `N=C(N)c1ccc(OCCCN2CCC(=C3c4ccc(Cl)cc4CCc4cccnc43)CC2)cc1`, the MIC80 (Candida albicans [2]) is reported as 64 µg/mL (≈ 131 µM), the MIC80 (Candida albicans [3]) is reported as 32 µg/mL (≈ 65.7 µM) and the MIC (Candida albicans [4]) is reported as “inactive”. For the same compound, the MIC80 (Candida albicans [4]; [21]) was 32 µg/mL (≈ 65.7 µM), the MIC80 (Candida albicans [6]) was 32 µg/mL (≈ 65.7 µM) and the MIC80 (Candida albicans [7]) was 32 µg/mL (≈ 65.7 µM). For the same compound, the MIC80 (Candida albicans [8]) was 32 µg/mL (≈ 65.7 µM), the MIC80 (Cryptococcus neoformans) was 16 µg/mL (≈ 32.9 µM) and the MIC80 (Candida albicans [9]) was 32 µg/mL (≈ 65.7 µM). It also gave an MIC80 ([Candida] auris [10]) of 64 µg/mL (≈ 131 µM), an MIC80 (Candida tropicalis) of 32 µg/mL (≈ 65.7 µM) and an MIC80 ([Candida] auris [11]) of 64 µg/mL (≈ 131 µM). The Drug uptake [12] was “Active”, the MIC80 (Candida albicans [15]) was 32 µg/mL (≈ 65.7 µM) and the MIC80 (Candida albicans [16]) was 64 µg/mL (≈ 131 µM). For the same compound, the MIC80 (Nakaseomyces glabratus) was 64 µg/mL (≈ 131 µM).
In the case of `C=C1C[C@@]23CC[C@H]4[C@@](C)(CCC[C@@]4(C)C(=O)OCC[N+](C)(CC)CC)[C@@H]2CC[C@]1(O)C3.[I-]`, the MIC80 (Candida albicans [4]; [22]) is reported as > 256 µg/mL, the MIC80 (Candida albicans [5]) is reported as 32 µg/mL and the Drug uptake (Candida albicans [19]) is reported as “inactive”.
For `CCOC(=O)C1=C(COCCNCCCOc2ccc(C(=N)N)cc2)NC(C)=C(C(=O)OC)C1c1ccccc1Cl` (configuration not stated), the MIC80 (Candida albicans [2]) was 8 µg/mL (≈ 13.7 µM), the MIC80 (Candida albicans [3]) was 4 µg/mL (≈ 6.84 µM) and the MIC (Candida albicans [4]) was “inactive”. The MIC80 (Candida albicans [4]; [21]) was 4 µg/mL (≈ 6.84 µM), the MIC80 (Candida albicans [6]) was 4 µg/mL (≈ 6.84 µM) and the MIC80 (Candida albicans [7]) was 4 µg/mL (≈ 6.84 µM). The MIC80 (Candida albicans [8]) was 4 µg/mL (≈ 6.84 µM), the MIC80 (Cryptococcus neoformans) was 8 µg/mL (≈ 13.7 µM) and the MIC80 (Candida albicans [9]) was 4 µg/mL (≈ 6.84 µM). It also gave an MIC80 ([Candida] auris [10]) of 8 µg/mL (≈ 13.7 µM), an MIC80 (Candida tropicalis) of 4 µg/mL (≈ 6.84 µM) and an MIC80 ([Candida] auris [11]) of 8 µg/mL (≈ 13.7 µM). For the same compound, the Drug uptake [12] was “Active”, the MIC80 (Candida albicans [15]) was 8 µg/mL (≈ 13.7 µM) and the MIC80 (Candida albicans [16]) was 4 µg/mL (≈ 6.84 µM). For the same compound, the MIC80 (Nakaseomyces glabratus) was 8 µg/mL (≈ 13.7 µM).
In the case of `C=C1C[C@@]23CC[C@H]4[C@@](C)(CCC[C@@]4(C)C(=O)OCCCn4c(CC)[n+](C)c5ccccc54)[C@@H]2CC[C@]1(O)C3.[I-]`, the MIC80 (Candida albicans [4]; [22]) is reported as 16 µg/mL, the MIC80 (Candida albicans [5]) is reported as 8 µg/mL and the IC50 at 4 h [13] is reported as 16.5 µg/mL. The hemolysis at 1 h [14] was < 2% and the IC50 at 4 h [17] was > 32 µg/mL.
In the case of `C[C@H]1[C@H](C)CC[C@]2(C(=O)OCCCOc3ccc(C(=N)N)cc3)CC[C@]3(C)C(=CC[C@@H]4[C@@]5(C)CC[C@H](O)C(C)(C)[C@@H]5CC[C@]43C)[C@H]12`, the MIC80 (Candida albicans [2]) is reported as 4 µg/mL (≈ 6.32 µM), the MIC80 (Candida albicans [3]) is reported as 4 µg/mL (≈ 6.32 µM) and the MIC (Candida albicans [4]) is reported as “inactive”. It also gave an MIC80 (Candida albicans [4]; [21]) of 4 µg/mL (≈ 6.32 µM), an MIC80 (Candida albicans [6]) of 4 µg/mL (≈ 6.32 µM) and an MIC80 (Candida albicans [7]) of 4 µg/mL (≈ 6.32 µM). The MIC80 (Candida albicans [8]) was 4 µg/mL (≈ 6.32 µM), the MIC80 (Cryptococcus neoformans) was 4 µg/mL (≈ 6.32 µM) and the MIC80 (Candida albicans [9]) was 4 µg/mL (≈ 6.32 µM). For the same compound, the MIC80 ([Candida] auris [10]) was 4 µg/mL (≈ 6.32 µM), the MIC80 (Candida tropicalis) was 4 µg/mL (≈ 6.32 µM) and the MIC80 ([Candida] auris [11]) was 8 µg/mL (≈ 12.6 µM). For the same compound, the Drug uptake [12] was “Active”, the MIC80 (Candida albicans [15]) was 4 µg/mL (≈ 6.32 µM) and the MIC80 (Candida albicans [16]) was 4 µg/mL (≈ 6.32 µM). For the same compound, the MIC80 (Nakaseomyces glabratus) was 4 µg/mL (≈ 6.32 µM) and the Activity (Candida albicans [20]) was “Active”.
With `C=C1C[C@@]23CC[C@@H]4[C@](C)(CN)CCC[C@@]4(C)[C@@H]2CC[C@]1(O)C3` the MIC80 (Candida albicans [4]; [22]) was > 256 µg/mL, the MIC80 (Candida albicans [5]) was 32 µg/mL (≈ 105 µM) and the Drug uptake (Candida albicans [19]) was “inactive”.
